Test systems include Malme-3M; SN12C; SW-620; NCI-H460; K562; SK-MEL-28; A549; HOP-62; HCT-15; NCI-H226; 786-0; CCRF-CEM; KM12; EKVX; RPMI-8226; SF-539; LOX IMVI; SK-OV-3.
Common to all, as to assay: NCI-60 cell line screen, 48 h

Data on eight compounds can be found in ChEMBL document CHEMBL1201862, “PubChem BioAssay data set” (2004).

The structures appear in SMILES notation.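 Where inhibition never reached the appropriate level, the endpoint shown equals the highest concentration tested. Otherwise, values were interpolated linearly from a five-concentration, 48-hour dose response in 96-well plates. The concentration for 50% growth inhibition is given as GI50.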 Active and inactive are the calls of the source. Rule as the data show it: active = GI50 up to about 1.1 µM and inactive = higher.

As for `C=CCCOC(=O)CO[N+](=O)[O-]`, the GI50 in the test on Malme-3M, in the test with SN12C, in the test on SW-620, in the test on NCI-H460, with K562 and with SK-MEL-28 was > 100 µM (inactive) each time. Also, the GI50 with A549 is > 100 µM (inactive); with HOP-62 it was > 100 µM (inactive); in the test with HCT-15 it was over 100 µM; in the test on NCI-H226 it was > 100 µM (inactive); with 786-0, > 100 µM (inactive); in the test with CCRF-CEM it was > 100 µM (inactive). Also, the GI50 in the test on KM12, in the test on EKVX, with RPMI-8226, with SF-539, in the test on LOX IMVI and with SK-OV-3 was > 100 µM (inactive) in each case.
For `COC(=O)C(Cc1nc2ccccc2nc1O)/C(=N\NC(C)(C)C)C(=O)Nc1c(C)cc(Br)cc1C` (stereo not drawn), the GI50 with Malme-3M was 27.6 µM (inactive); in the test on SN12C it was 42.7 µM (inactive); in the test with SW-620, 35.2 µM (inactive); with NCI-H460 it was 30.1 µM (inactive); with K562, 29.4 µM (inactive); in the test with SK-MEL-28 it was 20 µM (inactive). Moreover, the GI50 with A549 was 50.9 µM (inactive); with HOP-62, 35 µM (inactive); in the test on HCT-15, 23.4 µM; in the test with NCI-H226 it was 17.6 µM (inactive); in the test with 786-0 it was 17.5 µM (inactive); in the test on CCRF-CEM, 17.8 µM (inactive). The GI50 is 41 µM (inactive) in the test on KM12; 36.4 µM (inactive) in the test with EKVX; 35.2 µM (inactive) in the test with RPMI-8226; 19.9 µM (inactive) in the test on SF-539; 19.3 µM (inactive) in the test with LOX IMVI; 50.5 µM (inactive) in the test on SK-OV-3.
For `CC1OC(n2cc(F)c(=O)[nH]c2=O)C=CC1=O` (stereo not drawn), the GI50 was 18.7 µM (inactive) with Malme-3M; 16.4 µM (inactive) in the test on SN12C; 18.8 µM (inactive) in the test on SW-620; 21.6 µM (inactive) in the test on NCI-H460; 31 µM (inactive) with K562; 17.7 µM (inactive) in the test with SK-MEL-28. The GI50 in the test on A549 was > 100 µM (inactive); with HOP-62 it was 38.8 µM (inactive); in the test on HCT-15 it was 20.3 µM; with NCI-H226 it was 24.7 µM (inactive); in the test on 786-0, 15.9 µM (inactive); in the test with CCRF-CEM it was 13.8 µM (inactive). Besides, the GI50 in the test with KM12 was 17.7 µM (inactive); in the test with RPMI-8226 it was 21 µM (inactive); in the test with SF-539, 16.4 µM (inactive); in the test on LOX IMVI it was 15 µM (inactive); in the test on SK-OV-3 it was 29 µM (inactive).
`Nc1nc(N)c(CCCCc2ccccc2)c(C=O)n1`: the GI50 in the test with Malme-3M was 18.1 µM (inactive); in the test on SN12C, 19.1 µM (inactive); with SW-620 it was 11.7 µM (inactive); with NCI-H460, 42.1 µM (inactive); in the test with K562 it was 5.81 µM (inactive); with SK-MEL-28, 15.9 µM (inactive). Also, the GI50 in the test on A549 is 41.4 µM (inactive); in the test on HOP-62, > 100 µM (inactive); in the test on HCT-15 it was 14.7 µM; in the test on NCI-H226, 19.4 µM (inactive); in the test on 786-0, 15 µM (inactive); in the test on CCRF-CEM, 10.6 µM (inactive). The GI50 was 15.9 µM (inactive) in the test with KM12; 21 µM (inactive) with EKVX; 13.2 µM (inactive) in the test on RPMI-8226; 18.9 µM (inactive) in the test with SF-539; 14.8 µM (inactive) in the test on LOX IMVI; 31.1 µM (inactive) in the test on SK-OV-3.
`CCOC(=O)[C@H](Cc1ccccc1)NC(=O)c1nc[nH]c1[N+](=O)[O-]`: the GI50 in the test with Malme-3M, in the test with SN12C, in the test with SW-620, in the test with NCI-H460, in the test with K562 and with SK-MEL-28 was > 100 µM (inactive) each time. Besides, the GI50 in the test with A549 is > 100 µM (inactive); with HOP-62 it was > 100 µM (inactive); with HCT-15, over 100 µM; in the test with NCI-H226 it was > 100 µM (inactive); in the test on 786-0 it was > 100 µM (inactive); with CCRF-CEM, > 100 µM (inactive). Also, the GI50 with KM12, in the test on EKVX, in the test with RPMI-8226, with SF-539, in the test on LOX IMVI and in the test with SK-OV-3 was > 100 µM (inactive) in each case.
Consider `CCC1=CCN(c2cc(C)ccn2)OC1c1ccccc1` (stereo not drawn), for which the GI50 in the test with Malme-3M was 26.5 µM (inactive); in the test with SN12C it was 34.6 µM (inactive); with SW-620, 32.2 µM (inactive); with NCI-H460 it was 38.4 µM (inactive); with K562, 47.4 µM (inactive); with SK-MEL-28, 23.9 µM (inactive). The GI50 with A549 is 40.1 µM (inactive); with HOP-62, > 100 µM (inactive); in the test on HCT-15, 21.8 µM; in the test on NCI-H226, > 100 µM (inactive); with 786-0, 45.9 µM (inactive); in the test on CCRF-CEM it was 35.7 µM (inactive). For the same compound, the GI50 is 30.9 µM (inactive) with KM12; 56.4 µM (inactive) in the test with EKVX; 19.1 µM (inactive) with RPMI-8226; > 100 µM (inactive) in the test on SF-539; 30.9 µM (inactive) in the test with LOX IMVI; 71.3 µM (inactive) in the test with SK-OV-3.
Turning to `NC(=O)COc1ccccc1`, the GI50 in the test with Malme-3M, in the test with SN12C, in the test on SW-620, in the test on NCI-H460, with K562 and with SK-MEL-28 was > 100 µM (inactive) in each case. For the same compound, the GI50 in the test with A549 was > 100 µM (inactive); with HOP-62 it was > 100 µM (inactive); in the test with HCT-15, over 100 µM; with NCI-H226, > 100 µM (inactive); in the test on 786-0, > 100 µM (inactive); with CCRF-CEM it was > 100 µM (inactive). Also, the GI50 with KM12, in the test on EKVX, in the test with RPMI-8226, in the test with SF-539, in the test with LOX IMVI and in the test with SK-OV-3 was > 100 µM (inactive) each time.
Consider `CC(N)Cc1ccc(F)cc1` (stereo not drawn), for which the GI50 in the test with Malme-3M, in the test on SN12C, with SW-620, in the test with NCI-H460, with K562 and in the test with SK-MEL-28 was > 100 µM (inactive) in each case. The GI50 was > 100 µM (inactive) in the test with A549; > 100 µM (inactive) in the test on HOP-62; over 100 µM in the test on HCT-15; > 100 µM (inactive) in the test with NCI-H226; > 100 µM (inactive) in the test with 786-0; > 100 µM (inactive) in the test on CCRF-CEM. The GI50 in the test on KM12, in the test on EKVX, with RPMI-8226, in the test with SF-539, with LOX IMVI and in the test with SK-OV-3 was > 100 µM (inactive) in each case.
